“Also recorded” adds a separate entry of the source.

Assay [1] deals with penile intracavernosal pressure. The assay is described as follows: Penile intracavernosal pressure in the conscious male rat (telemetry). It is filed as in vivo. The settings on record: Compound 1 10 mg/kg sc, one hour after, Compound 3 15 mg/kg sc, 45 minutes after, conscious male rat (FIGS. 24, 25). The protocol: In addition to treating women with FSD, bombesin antagonists will be useful in treating male erectile dysfunction (MED. Both the non-selective BB1/2 antagonists (Compound 1; 10 mg/kg sc) and the selective BB1 receptor antagonist (Compound 3; 15 mg/kg sc) is pro-erectile in a conscious rat model of penile erection (FIGS. 24 and 25). Erectile responses were recorded by measuring intracavemosal pressure using surgically implanted telemetric device. The specific details the surgical procedures, data acquisition and analysis can be found in detail in Bernabe 1999.
Compound 1 and compound 3 were dissolved in 50% β-cyclodextrin in saline. They were administered at a dose of […] subcutaneously (sc). […] These increases equate to penile erection. Both Compounds 1 and 3 induced a number of erections in a similar manner to those observed with apomorphine or melanotan-II—both of which are clinically proven agents that are effective in the treatment of MED. Moreover the amplitude of the increases observed were similar to those observed with apomorphine or melanotan-II. The mechanism of action is thought to be similar to the effects on female genital flow ie CNS potentiation of the descending neuronal pathways that control penile erection.

Assay [2] has as its system female genital blood flow. The assay can be described thus: Female genital blood flow in the anaesthetised rabbit model of sexual arousal (pelvic nerve stimulation). The format is in vivo. The settings on record: 15 mg/kg sc; for basal genital blood flow in the absence of PNS / pelvic-nerve stimulated (PNS) increases in genital (vaginal and clitoral) blood flow: anaesthetised female rabbit (FIGS. 22, 23). On the procedure: Female New Zealand rabbits (˜2.5kg) were pre-medicated with a combination of Medetomidine (Domitor®) 0.5 ml/kg i.m., and Ketamine (Vetalar®) 0.25 ml/kg im. whilst maintaining oxygen intake via a face mask. The rabbits were tracheotomised using a PortexTM uncuffed endotracheal tube 3 ID., connected to ventilator and maintained at a ventilation rate of 30-40 breaths per minute, with an approximate tidal volume of 18-20 ml, and a maximum airway pressure of 10 cm H2O. Anaesthesia was then switched to Isoflurane and ventilation continued with O2 at 21/min. The right marginal ear vein was cannulated using a 23G or 24G catheter, and Lactated Ringer solution perfused at 0.5 ml/min. The rabbit was maintained at 3% Isoflurane during invasive surgery, dropping to 2% for maintenance anaesthesia.
The left groin area of the rabbit was shaved and a vertical incision was made approximately 5 cm in length along the thigh. The femoral vein and artery were exposed, isolated and then cannulated with a PVC catheter (17G) for the infusion of drugs and compounds. Cannulation was repeated for the femoral artery, inserting the catheter to a depth of 10 cm to ensure that the catheter reached the abdominal aorta. This arterial catheter was linked to a Gould system to record blood pressure. Samples for blood gas analysis were also taken via the arterial catheter. Systolic and diastolic pressures were measured, and the mean arterial pressure calculated using the formula (diastolic x2 +systolic)÷3. Heart rate was measured via the pulse oxymeter and Po-ne-mah data acquisition software system (Ponemah Physiology Platform, Gould Instrument Systems Inc). A ventral midline incision was made into the abdominal cavity. The incision was about 5 cm in length just above the pubis. The fat and muscle was bluntly dissected away to reveal the hypogastric nerve which runs down the body cavity. It was essential to keep close to the side curve of the pubis wall in order to avoid damaging the femoral vein and artery which lie above the pubis. The sciatic and pelvic nerves lie deeper and were located after further dissection on the dorsal side of the rabbit. Once the sciatic nerve is identified, the pelvic nerve was easily located. The term pelvic nerve is loosely applied; anatomy books on the subject fail to identify the nerves in sufficient detail. However, stimulation of the nerve causes an increase in vaginal and clitoral blood flow, and innervation of the pelvic region. The pelvic nerve was freed away from surrounding tissue and a Harvard bipolar stimulating electrode was placed around the nerve. The nerve was slightly lifted to give some tension, then the electrode was secured in position. Approximately 1 ml of light paraffin oil was placed around the nerve and electrode. This acts as a protective lubricant to the nerve and prevents blood contamination of the electrode. The electrode was connected to a Grass S88 Stimulator. The pelvic nerve was stimulated using the following parameters:-5V, pulse width 0.5 ms, duration of stimulus 10 seconds and a frequency range of 2 to 16 Hz. Reproducible responses were obtained when the nerve was stimulated every 15-20 minutes. A frequency response curve was determined at the start of each experiment in order to determine the optimum frequency to use as a sub-maximal response, normally 4 Hz. A ventral midline incision was made, at the caudal end of the pubis, to expose the pubic area. Connective tissue was removed to expose the tunica of the clitoris, ensuring that the wall was free from small blood vessels. The external vaginal wall was also exposed by removing any connective tissue. One laser Doppler flow probe was inserted 3 cm into the vagina, so that half the probe shaft was still visible. A second probe was positioned so that it lay just above the external clitoral wall. The position of these probes was then adjusted until a signal was obtained. A second probe was placed just above the surface of a blood vessel on the external vaginal wall. […]

For the compound `COc1ccc(C2(CNC(=O)[C@](C)(Cc3c[nH]c4ccccc34)NC(=O)Nc3ccc([N+](=O)[O-])cc3)CCCCC2)nc1` [Compound (1), (S) 3-(1H-Indol-3-yl)-N-[1-(5-methoxy-pyridin-2-yl)-cyclohexyl-methyl]-2-methyl-2-[3-(4-nitro-phenyl)-ureido]-propionamide], the “penile intracavernosal pressure / erection” value in assay [1] is given as “pro-erectile; also recorded: significant increases in intracavernosal pressure”. Also, in assay [2], the “basal genital blood flow in the absence of PNS” value is “no effect on basal genital blood flow”; the “pelvic-nerve stimulated (PNS) increases in genital (vaginal and clitoral) blood flow” value is given as “potent enhancer of pelvic-nerve stimulated (PNS) increases in genital blood flow”.
Regarding `C[C@@](Cc1c[nH]c2ccccc12)(NC(=O)Nc1ccc([N+](=O)[O-])cc1)C(=O)NCC1(c2ccc(N)cc2)CCCCC1` [Compound 3, (2S)-N-{[1-(4-aminophenyl)cyclohexyl]methyl}-3-(1H-indol-3-yl)-2-methyl-2-{[(4-nitroanilino)-carbonyl]amino}propanamide], the “penile intracavernosal pressure / erection” value in assay [1] is reported as “pro-erectile”. For the same compound, in assay [1] (listed as compound 3), the “penile intracavernosal pressure / erection” value is on record as “significant increases in intracavernosal pressure”. In assay [2], the “time after sc dosing at which potentiation was significant” value was found to be 45 min; the “time potentiation remained elevated” value is “circa 1 hr”; the “basal genital blood flow in the absence of PNS” value is “no effect on basal genital blood flow”; the “pelvic-nerve stimulated (PNS) increases in genital (vaginal and clitoral) blood flow” value is “potent enhancer of pelvic-nerve stimulated (PNS) increases in vaginal and clitoral blood flow”.

For the origin of these results see patent US20020169101A1, “Treatment of sexual dysfunction” (priority 1999, published 2002).
